Measured values: ChEMBL document CHEMBL1201862, “PubChem BioAssay data set” (2004)
“And” between values parts separate entries of the source, which are not always exact repeats. Equal entries are not always repeated.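 All cell lines were grown in 96-well plates and treated with compound for 48 hours. At the GI50, growth is halved.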 The source made the active and inactive calls. Rule as the data show it: active = GI50 up to about 1.1 µM and inactive = higher.

Assays:
Assay in all cases: NCI anticancer screen, dose series, 48 h
SF-539 = system: SF-539
HOP-62 = system: HOP-62
CCRF-CEM = system: CCRF-CEM
NCI-H226 = system: NCI-H226
SK-OV-3 = system: SK-OV-3
NCI/ADR-RES = system: NCI/ADR-RES
SK-MEL-2 = system: SK-MEL-2
EKVX = system: EKVX
T47D = system: T47D
HOP-92 = system: HOP-92
CAKI-1 = system: CAKI-1
KM12 = system: KM12
IGROV-1 = system: IGROV-1
SK-MEL-28 = system: SK-MEL-28
MDA-MB-435 = system: MDA-MB-435
A549 = system: A549
U-251 = system: U-251
SNB-19 = system: SNB-19
M14 = system: M14
SR = system: SR

Row | SMILES | GI50 (SF-539) | GI50 (HOP-62) | GI50 (CCRF-CEM) | GI50 (NCI-H226) | GI50 (SK-OV-3) | GI50 (NCI/ADR-RES) | GI50 (SK-MEL-2) | GI50 (EKVX) | GI50 (T47D) | GI50 (HOP-92) | GI50 (CAKI-1) | GI50 (KM12) | GI50 (IGROV-1) | GI50 (SK-MEL-28) | GI50 (MDA-MB-435) | GI50 (A549) | GI50 (U-251) | GI50 (SNB-19) | GI50 (M14) | GI50 (SR)
1 | Nc1nc(Cl)cc(NCC2(CO)CC=CC2)n1 | > 100 µM (inactive) | > 100 µM (inactive) | > 100 µM (inactive) | > 100 µM (inactive) | > 100 µM (inactive) | > 100 µM (inactive) | > 100 µM (inactive) | 71 µM (inactive) | 47.1 µM (inactive) | > 100 µM (inactive) | > 100 µM (inactive) | > 100 µM (inactive) | > 100 µM (inactive) | > 100 µM (inactive) | > 100 µM (inactive) | > 100 µM (inactive) | > 100 µM (inactive) | > 100 µM (inactive) |  | 
2 | C=C(Br)C(Br)(CCl)CCC(Cl)C(C)C.C=C(Cl)C(Br)(CCl)CCC(Cl)C(C)C (configuration not stated) | 1.94 µM (inactive) | 2.21 µM (inactive) | 0.254 µM (active) | 3.69 µM (inactive) | 2.3 µM (inactive) | 1.94 µM (inactive) | 1.47 µM (inactive) | 15.8 µM (inactive) |  | 1.87 µM (inactive) | 2.81 µM (inactive) | 1.83 µM (inactive) | 1.88 µM (inactive) | 1.77 µM (inactive) | 1.93 µM (inactive) | 14.8 µM (inactive) | 1.75 µM (inactive) | 3 µM (inactive) | 1.89 µM (inactive) | 0.442 µM (active)
3 | C=CCc1ccc(O)c(-c2cc(C3Oc4c(-c5cc(CC=C)ccc5O)cc(O)cc4[C@@H]3CO)ccc2O)c1 (some centres not stated) | 24 µM (inactive) | 21.4 µM (inactive) | 20.7 µM (inactive) | 53.8 µM (inactive) | 42.7 µM (inactive) |  | 18.6 µM (inactive) | 64.4 µM (inactive) |  | 12.2 µM (inactive) | 47.3 µM (inactive) | 27.4 µM (inactive) | 20.3 µM (inactive) | 26.7 µM (inactive) |  | 56 µM (inactive) | 25.2 µM (inactive) | 28.5 µM (inactive) | 37.5 µM (inactive) | 14.4 µM (inactive)
4 | Cc1ccc(S(=O)(=O)SC/C=C\CSS(=O)(=O)c2ccc(C)cc2)cc1 |  | 49.2 µM (inactive) and 35.9 µM (inactive) | 0.262 µM (active) | 23.1 µM (inactive) and 24.3 µM (inactive) | 43.5 µM (inactive) and 55.8 µM (inactive) | 52.2 µM (inactive) | 47 µM (inactive) | > 92.7 µM (inactive) and 53.6 µM (inactive) | 39.3 µM (inactive) | 14.4 µM (inactive) and 16.2 µM (inactive) | 21.4 µM (inactive) and 18.2 µM (inactive) | 14.7 µM (inactive) and 17.2 µM (inactive) | 39.2 µM (inactive) and 28.1 µM (inactive) |  | 5.82 µM (inactive) | 31.5 µM (inactive) and 35.7 µM (inactive) | 15.8 µM (inactive) and 15.9 µM (inactive) | 34.2 µM (inactive) and 29.6 µM (inactive) | 13.8 µM (inactive) and 17.4 µM (inactive) | 
5 | Cc1cc(-c2nc3ccc(F)cc3s2)ccc1N | 43.5 µM (inactive) | > 100 µM (inactive) | 9.46 µM (inactive) | 59.8 µM (inactive) |  | > 100 µM (inactive) | > 100 µM (inactive) | 56.5 µM (inactive) |  | > 100 µM (inactive) | > 100 µM (inactive) | > 100 µM (inactive) | 1.28 µM (inactive) | > 100 µM (inactive) | > 100 µM (inactive) | 42.5 µM (inactive) | > 100 µM (inactive) | > 100 µM (inactive) | > 100 µM (inactive) | > 100 µM (inactive)
6 | COC1=NC(NC2OCC(O)C(O)C2O)=C(NC(C)=O)CN1C (configuration not stated) | > 100 µM (inactive) |  | > 100 µM (inactive) | > 100 µM (inactive) | > 100 µM (inactive) | > 100 µM (inactive) | > 100 µM (inactive) | > 100 µM (inactive) | > 100 µM (inactive) | > 100 µM (inactive) | > 100 µM (inactive) | > 100 µM (inactive) |  | > 100 µM (inactive) | > 100 µM (inactive) | > 100 µM (inactive) |  | > 100 µM (inactive) | > 100 µM (inactive) | 
7 | CCCC/N=C(/c1ccccc1)N1CCOCC1 | > 100 µM (inactive) | > 100 µM (inactive) | > 100 µM (inactive) | > 100 µM (inactive) | > 100 µM (inactive) | > 100 µM (inactive) | > 100 µM (inactive) | > 100 µM (inactive) |  |  | > 100 µM (inactive) | > 100 µM (inactive) | > 100 µM (inactive) | > 100 µM (inactive) | > 100 µM (inactive) |  | > 100 µM (inactive) | > 100 µM (inactive) | > 100 µM (inactive) | > 100 µM (inactive)
8 | Oc1c(OCc2nnc(CCCCCCCCc3nnc(COc4ccc5ccccc5c4O)n3Nc3ccccc3)n2Nc2ccccc2)ccc2ccccc12 | 3.98 µM (inactive) | 0.261 µM (active) |  | 7.55 µM (inactive) | 9.77 µM (inactive) | 11 µM (inactive) | 9.12 µM (inactive) | 11.6 µM (inactive) | 6.43 µM (inactive) | 15.7 µM (inactive) | 0.676 µM (active) | 3 µM (inactive) | 12 µM (inactive) | 2.07 µM (inactive) | 2.46 µM (inactive) | 6.46 µM (inactive) | 12 µM (inactive) | 11.8 µM (inactive) | 1.97 µM (inactive) | 
9 | CC1(C)CC(=O)c2c(nc3c(ccc4ccccc43)c2-c2ccc(NC(=O)CCCCC(=O)Nc3ccc(-c4c5c(nc6c4ccc4ccccc46)CC(C)(C)CC5=O)cc3)cc2)C1 | 20.6 µM (inactive) | 32.7 µM (inactive) | 20.7 µM (inactive) | 15.2 µM (inactive) | 37.2 µM (inactive) | 23.8 µM (inactive) | 33 µM (inactive) | 21.2 µM (inactive) | 22.6 µM (inactive) |  | 35.3 µM (inactive) | 20.7 µM (inactive) | 14 µM (inactive) | 34 µM (inactive) | 26.2 µM (inactive) | 53.7 µM (inactive) | 28.4 µM (inactive) | 69.2 µM (inactive) | 32.3 µM (inactive) | 
10 | COCO[C@@H]1C[C@H]2C(=O)N(COC)c3ccccc3C(=O)N2C1 | > 100 µM (inactive) | > 100 µM (inactive) | > 100 µM (inactive) | > 100 µM (inactive) | > 100 µM (inactive) | > 100 µM (inactive) | > 100 µM (inactive) | > 100 µM (inactive) | > 100 µM (inactive) |  | > 100 µM (inactive) | > 100 µM (inactive) | > 100 µM (inactive) | > 100 µM (inactive) | > 100 µM (inactive) | > 100 µM (inactive) | > 100 µM (inactive) | > 100 µM (inactive) | > 100 µM (inactive) | 
11 | CCC/C(Cl)=N\OC(=O)Nc1ccc(F)c([N+](=O)[O-])c1 | 24 µM (inactive) | 18.4 µM (inactive) | 3.74 µM (inactive) | 24.2 µM (inactive) | 24.6 µM (inactive) | 17.9 µM (inactive) | 14.3 µM (inactive) | 16.2 µM (inactive) |  | 15 µM (inactive) | 4.3 µM (inactive) | 16.7 µM (inactive) | 15.3 µM (inactive) | 18 µM (inactive) | 16.2 µM (inactive) | 24.7 µM (inactive) | 18.3 µM (inactive) | 15.2 µM (inactive) | 14.7 µM (inactive) | 
12 | CN(C)/N=N/c1cccc(C(N)=O)c1 | > 100 µM (inactive) |  | > 100 µM (inactive) | > 100 µM (inactive) | > 100 µM (inactive) |  | > 100 µM (inactive) | > 100 µM (inactive) |  | > 100 µM (inactive) | > 100 µM (inactive) | > 100 µM (inactive) | > 100 µM (inactive) | > 100 µM (inactive) |  | > 100 µM (inactive) | > 100 µM (inactive) | > 100 µM (inactive) | > 100 µM (inactive) | > 100 µM (inactive)
13 | CCOC(=O)CN1C(=O)NC(C)(c2ccccc2)C1=O (configuration not stated) | > 100 µM (inactive) | > 100 µM (inactive) | > 100 µM (inactive) |  | > 100 µM (inactive) | > 100 µM (inactive) | > 100 µM (inactive) | > 100 µM (inactive) | > 100 µM (inactive) | > 100 µM (inactive) | > 100 µM (inactive) | > 100 µM (inactive) | > 100 µM (inactive) | > 100 µM (inactive) | > 100 µM (inactive) | > 100 µM (inactive) | > 100 µM (inactive) | > 100 µM (inactive) | > 100 µM (inactive) | 
14 | COC(=O)c1sc(=S)sc1SCc1ccc(CSc2sc(=S)sc2C(=O)OC)cc1 |  | > 100 µM (inactive) | > 100 µM (inactive) | > 100 µM (inactive) | > 100 µM (inactive) | > 100 µM (inactive) | > 100 µM (inactive) | > 100 µM (inactive) | > 100 µM (inactive) | > 100 µM (inactive) | > 100 µM (inactive) | > 100 µM (inactive) | > 100 µM (inactive) | > 100 µM (inactive) | > 100 µM (inactive) | > 100 µM (inactive) | > 100 µM (inactive) | > 100 µM (inactive) | > 100 µM (inactive) | 
15 | Cc1nc2sccn2c1C(=O)NN | > 100 µM (inactive) | > 100 µM (inactive) | > 100 µM (inactive) | > 100 µM (inactive) | > 100 µM (inactive) |  | > 100 µM (inactive) | > 100 µM (inactive) |  | > 100 µM (inactive) | > 100 µM (inactive) | > 100 µM (inactive) | > 100 µM (inactive) | > 100 µM (inactive) |  | > 100 µM (inactive) | > 100 µM (inactive) | > 100 µM (inactive) |  | > 100 µM (inactive)
